Tests used:
[1] = Serum chemistry in monkeys, 2 mg/kg 30-min IV infusion; format: in vivo, Cynomolgus monkeys
Protocol: (§1) TH 3423 and TH 3424 were tested in […] naïve monkeys (1 male and one female for each compound at 2 mg/kg) with 30-min intravenous infusion, TK sampling: on Day 1 and Day 15: 0.25, 0.5, 0.75, 1 and 2 hr post infusion initiation. Serum chemistry and hematology: pre-dose (Day 1), day 5, day 8 (pre-dose), day 15 (pre-dose), day 22 and day 28. Clinical observation: Daily during the study, total 35 days. Food consumption: Daily during the study, total 35 days. Bodyweight measurement: Twice weekly for five weeks.

[2] = Body weight in monkeys, 2 mg/kg 30-min IV infusion; format: in vivo, Cynomolgus monkeys
Protocol: as §1

## C[C@H](OP(=O)(N1CC1)N1CC1)c1ccc([N+](=O)[O-])c(Oc2cccc(C(=O)N(C)C)c2)c1 (single isomer, unassigned) [TH3424]
[1]; female, Day 1 (pre-dose)
  A/G: 1.9
  ALB: 46.1 g/L
  ALP: 134.2 U/L
  ALT: 61.6 U/L
  AST: 23.7 U/L
  BUN: 3.43 mM
  CK: 202 U/L
  CREA: 61 µM
  Ca: 2.51 mmol/L
  GLB: 24.1 g/L
  Glu: 3.34 mM
  K: 5.77 mmol/L
  Na: 143 mmol/L
  TBIL: 1.5 µM
  TC: 3.04 mM
  TG: 0.17 mmol/L
  TP: 70.2 g/L
  γ-GT: 47.3 U/L
[1]; female, Day 8 (pre-dose)
  A/G: 1.4
  ALB: 41.8 g/L
  ALP: 200.2 U/L
  ALT: 37.7 U/L
  AST: 43.1 U/L
  BUN: 5.63 mM
  CK: 190 U/L
  CREA: 88 µM
  Ca: 2.37 mmol/L
  GLB: 30.6 g/L
  Glu: 5.91 mM
  K: 4.33 mmol/L
  Na: 143 mmol/L
  TBIL: 0.8 µM
  TC: 2.91 mM
  TG: 0.63 mmol/L
  TP: 72.4 g/L
  γ-GT: 36.2 U/L
[1]; female, Day 15 (pre-dose)
  A/G: 1.6
  ALB: 38.5 g/L
  ALP: 151.5 U/L
  ALT: 31.9 U/L
  AST: 23.8 U/L
  BUN: 3.87 mM
  CK: 78 U/L
  CREA: 46 µM
  Ca: 2.2 mmol/L
  GLB: 23.8 g/L
  Glu: 2.8 mM
  K: 5.58 mmol/L
  Na: 132.59 mmol/L
  TBIL: 4.0 µM
  TC: 2.23 mM
  TG: 0.94 mmol/L
  TP: 62.3 g/L
  γ-GT: 34.2 U/L
[1]; male, Day 1 (pre-dose)
  A/G: 2.5
  ALB: 50.5 g/L
  ALP: 287.5 U/L
  ALT: 43.0 U/L
  AST: 40.2 U/L
  BUN: 4.89 mM
  CK: 221 U/L
  CREA: 91 µM
  Ca: 2.38 mmol/L
  GLB: 19.9 g/L
  Glu: 4.5 mM
  K: 4.31 mmol/L
  Na: 147 mmol/L
  TBIL: 2.1 µM
  TC: 3.22 mM
  TG: 0.38 mmol/L
  TP: 70.4 g/L
  γ-GT: 62.2 U/L
[1]; male, Day 8 (pre-dose)
  A/G: 2.0
  ALB: 43.3 g/L
  ALP: 225.2 U/L
  ALT: 31.2 U/L
  AST: 31.2 U/L
  BUN: 4.8 mM
  CK: 83 U/L
  CREA: 96 µM
  Ca: 2.33 mmol/L
  GLB: 21.8 g/L
  Glu: 4.15 mM
  K: 4.51 mmol/L
  Na: 147 mmol/L
  TBIL: 3.6 µM
  TC: 3.06 mM
  TG: 0.66 mmol/L
  TP: 65.1 g/L
  γ-GT: 44.9 U/L
[1]; male, Day 15 (pre-dose)
  A/G: 2.2
  ALB: 36.8 g/L
  ALP: 174.8 U/L
  ALT: 45.0 U/L
  AST: 73.5 U/L
  BUN: 9.66 mM
  CK: 172 U/L
  CREA: 58 µM
  Ca: 2.14 mmol/L
  GLB: 16.4 g/L
  Glu: 1.47 mM
  K: 6.05 mmol/L
  Na: 136.14 mmol/L
  TBIL: 2.1 µM
  TC: 1.44 mM
  TG: 0.41 mmol/L
  TP: 53.2 g/L
  γ-GT: 36.7 U/L
[2]; Day 1, male
  body weight: 3.40
[2]; Day 4, male
  body weight: 3.30
[2]; Day 8, Mean
  body weight: 3.20
